Assay results from patent US20230056057A1, “HERBICIDE CO[…] MONOETHANOLAMINE SALT AND A PPO-INHIBITOR” (MONSANTO TECHNOLOGY LLC, priority 2020, published 2023).
Structures can show the parent of a compound that is named as a salt.

crystallization at higher loadings (higher loadings) | tendency to salt out (at higher concentrations, compared to the dicamba DGA salt) | Structure (SMILES)
crystallizes out |  | COc1c(Cl)ccc(Cl)c1C(=O)O.NCCOCCO [dicamba DGA salt, diglycolamine (DGA) salt of dicamba]
 | less tendency to salt out | COc1c(Cl)ccc(Cl)c1C(=O)O [dicamba EA salt, dicamba monoethanolamine salt]
